# Assay results: patent publication US20130345392A1, “EDN3-LIKE PEPTIDES AND USES THEREOF” (Pfizer Inc, priority 2011, published 2013)
# Entries after “also recorded” stand apart in the source; their conditions may differ. Bridges are numbered along the chain shown (N, C = ends). Where no end group is shown, it is not given here.
# Tests used:
# [1] = biological target: T1, human endothelin ETA receptor (Homo sapiens, UniProt P25101); experiment: Radioligand binding, human endothelin ETA receptor in transfected CHO cell membranes; details: tested at a concentration of up to 3 μM (p>0.05)
# T1 construct: expressed in transfected cells; host or cells: CHO cells
# T1 sequence (P25101 21-427): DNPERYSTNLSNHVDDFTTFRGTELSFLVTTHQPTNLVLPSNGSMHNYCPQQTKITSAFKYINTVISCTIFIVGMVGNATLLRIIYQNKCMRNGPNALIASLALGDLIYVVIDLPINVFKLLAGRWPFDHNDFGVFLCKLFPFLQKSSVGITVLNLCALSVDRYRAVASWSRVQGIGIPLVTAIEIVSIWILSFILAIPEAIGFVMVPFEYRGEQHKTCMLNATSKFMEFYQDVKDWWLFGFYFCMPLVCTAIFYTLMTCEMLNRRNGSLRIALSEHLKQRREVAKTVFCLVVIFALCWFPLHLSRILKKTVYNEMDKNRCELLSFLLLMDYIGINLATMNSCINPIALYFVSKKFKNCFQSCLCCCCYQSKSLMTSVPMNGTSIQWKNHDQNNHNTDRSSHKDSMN
# Experimental: To evaluate the affinity of EDN3 97-140 for the agonist site of the human endothelin ETA receptor, radioligand binding with CHO cells transfected with the ETA receptor was used. […] Following incubation, the samples are filtered rapidly under vacuum through glass fiber filters (GF/B, Packard) presoaked with 0.1% BSA and rinsed several times with an ice-cold buffer containing 50 mM Tris-HCl and 150 mM NaCl using a 96-sample cell harvester (Unifilter, Packard). Filters were dried and then counted for radioactivity in a scintillation counter (Topcount, Packard) using a scintillation cocktail (Microscint 0, Packard). Results are expressed as a percent inhibition of the control radioligand specific binding.
# C57BL6J male mice = experiment: Indirect calorimetry and telemetry in mice after injection into the preoptic area; format: in vivo, mouse; details: 2.5 nmol by direct injection into the POA
# Experimental: C57BL6J male mice (3-4 months old, 25-30 g, 6 mice per group) were purchased from Harlan. […] Energy expenditure measures (VO2, VCO2 and heat formation ((3.815+1.232*RER)*VO2 (in liters)) were corrected for estimated effective metabolic mass per Kleiber's power function (Kleiber, 1947). Mice undergoing indirect calorimetry were acclimated to the respiratory chambers for 3-4 days before the onset of study. Data were recorded under ambient room temperature clamped at 25° C., beginning from the onset of the light cycle (12:12 hour light-dark cycle; lights on at 6:00 a.m.) for 3 days. Treatments were administered directly to the POA via an implanted cannula (anterior from bregma: 0.3 mm, midline, ventral: 3.8 mm, cannula 26 GA, 10 mm length) using an injector (33 GA, protruding 0.4 mm beyond the tip of the cannula, total length 10.4 mm) connected to plastic tubing and a microsyringe (10 μL) in a volume of 0.5 μL over a period of 5 minutes to allow diffusion. […]
# ob/ob mice = experiment: Glucose tolerance (IPGTT) in ob/ob mice; format: in vivo, mouse; details: for reduction in glucose: overnight fast, 0.6 mg/kg glucose challenge i.p., mean±SEM n=8
# Experimental: DIO mice fed on a high fat diet for 14 weeks and ob/ob mice were purchased from Jackson Labs. Ob/Ob mice and DIO mice used in all studies were used at 7 and 18 weeks old, respectively. After an overnight fast, ob/ob and DIO mice were injected with vehicle (20 mM Na acetate/140 mM NaCl) or EDN3 97-140 (0.1, 1 or 10 mg/kg i.p.) followed by a […] (i.p.) or 2 g/kg (i.p.) D-glucose challenge in ob/ob and DIO mice respectively. Plasma glucose levels were determined from mouse tail vein bleeds at 0, 15, 30, 60, and 120 minutes after compound injection and measured using an automatic glucometer (Alpha-Trak). To determine the acute insulin release, plasma insulin levels were measured by using an ELISA kit with mouse insulin as a standard (Meso Scale Discovery). Results were expressed as percentages of vehicle concentrations and statistical significance determined by 2-way ANOVA repeated measures.
# 3T3L1 adipocyte = 3T3L1 adipocyte basal glucose uptake; format: cell-based; details: 10 μM (data not shown)
# INS1 cells = experiment: Glucose-stimulated insulin release from INS1 cells; format: cell-based; details: 10 μM (data not shown)
substance,measurement,setting,value
"CTCFTYKDKECVYYCHLDIIWINTPEQTVPYGLSNYRESLRGKR-NH2 (disulfide 1-15, 3-11) [EDN3 97-140]",binding to ETA receptor,[1],failed to bind
same,locomotor activity,C57BL6J male mice,transient spike of increased locomotor activity; also recorded: transient increase in locomotor activity
same,reduction in glucose,ob/ob mice; 1 mg/kg i.p. single bolus,35.1±13%
same,reduction in glucose,ob/ob mice; 10 mg/kg i.p. single bolus,31.3±6.9%
same,glucose excursion curve in response to an IPGTT,"ob/ob mice; acute peripheral administration 0.1, 1 or 10 mg/kg i.p.",decreased
same,insulin secretion during IPGTT,"ob/ob mice; i.p., trend towards an increase at 30 minutes at 10 mg/kg (p>0.05), 10 mg/kg",not statistically significant; also recorded: no statistically significant effect on insulin
same,effect on 3T3L1 adipocyte basal glucose uptake,3T3L1 adipocyte,no effect
same,modulation of glucose-stimulated insulin release from INS1 cells,INS1 cells,failed to modulate
